Assays:
[1] = cited from earlier work; for Proposed target for TDM, Cmin: Table S1, plasma trough level, ref supplementary refs 1-11, per drug; for Target value of residual plasma concentration defining 'optimal concentration': recommended for TDM
[2] = Table S2; ref supplementary refs 9-18, per drug; cited from earlier work
[3] = Residual plasma concentration of kinase inhibitors by UPLC-MS/MS in NSCLC patients, classed optimal or suboptimal
Description: Patients with advanced NSCLC harboring oncogenic drivers, such as an EGFR-mutation, BRAF^V600E-mutation, ALK-fusion, or ROS1-fusion, treated with KI therapy for at least three months were eligible. […] KI plasma concentrations were evaluated in blood samples collected during therapy, and at the time of clinical response or relapse. Chronic plasma exposure was defined as at least three months of KI therapy. Clinical and pathological data were extracted from electronic medical records. Radiological assessments were performed every 8 or 12 weeks per Response Evaluation Criteria in Solid Tumors (RECIST) v1.1 and per the treating physician’s discretion.
Residual plasma concentrations of drugs were measured in blood samples using ultra-performance liquid chromatography coupled with tandem mass spectrometry validated methods. A residual estimate based on pharmacokinetic and population pharmacokinetic analysis parameters (Table S2) was made for samples not collected at the time of the residual sampling.
Precise measurement of trough concentrations is challenging in routine practice, due to the constraints of the logistics of blood collection at a precise time and the fact that the timing of administration varies from patient to patient. We defined three situations according to the dosing time with respect to the last dose: Optimal, evaluable, and non-interpretable.
• Optimal: The optimal concentration corresponds to the true residual plasma concentration at a steady state, in the blood collection performed immediately before the next administration. • Evaluable: The residual plasma concentration is estimated by an extrapolation method from known pharmacokinetic parameters (distribution volume, half-life, clearance) and from data obtained in population pharmacokinetic models. This estimate of standard trough concentration (Cmin, std) is only possible when blood samples were collected at steady state or during the terminal elimination phase of the drug, since in this phase, the elimination rate is linear. • - C (min, std) = C(t) * 0.5 ^ (Delta (t)/t1/2) • - C (min, std) = C(t) * exp (k(e) x Delta (t))
• 3. Not interpretable: Extrapolation is not feasible for samples taken during the plasma peak period.

[4] = cited from earlier work
[5] = studies of KI concentrations for other cancers; cited from earlier work
[6] = set-up: method as in PMID 22038662; settings: hepatocellular carcinoma patients, plasma measured every 15 days; cited from earlier work
[7] = samples after at least three months of KI, % of the optimal group (n = 25)
[8] = samples after at least three months of KI, % of the suboptimal group (n = 26)

Samples with optimal concentration [3, 7]	Samples with suboptimal concentration [3, 8]	Compound	Proposed target for TDM, Cmin [1]	Target value of residual plasma concentration defining 'optimal concentration' [1]	Bioavailability [2]	Distribution volume [2]	Hepatic elimination [2]	Metabolic pathway [2]	Tmax [2]	Interaction with proton pump inhibitors [4]	Half-life [2]	Suboptimal concentration rate [5]	Samples with optimal concentration ([3]; human, in vivo)	Samples with suboptimal concentration ([3]; human, in vivo)	Effect of cigarette smoke on plasmatic exposure ([4]; cigarette smoke induces CYP1A1)	Exposure after three months of treatment compared with one month [6]
2 (8%) No. (%)	5 (19.5%) No. (%)	C[C@@H](Oc1cc(-c2cnn(C3CCNCC3)c2)cnc1N)c1c(Cl)ccc(F)c1Cl [Crizotinib, crizotinib]	≥ 235 ng/mL	> 235 ng/mL	43%	1772 L	63%	CYP3A4	4 to 6 h	not relevant						
2 (8%) No. (%)	3 (11.5%) No. (%)	CC(C)(C)c1nc(-c2cccc(NS(=O)(=O)c3c(F)cccc3F)c2F)c(-c2ccnc(N)n2)s1 [Dabrafenib, dabrafenib]	≥ 96.1 ng/mL	> 96.1 ng/mL		46 L	73%	CYP2C8, 3A4		not relevant	8 h					
		C#Cc1cccc(Nc2ncnc3cc(OCCOC)c(OCCOC)cc23)c1 [Erlotinib, erlotinib]	≥ 500 ng/mL	> 500 ng/mL	59%	232 L	90%			decreasing their bioavailability and the plasmatic exposure	36.2 h	11%	7 (28%) No. (%)	6 (23%) No. (%)	significantly decreases	
		COc1cc2ncnc(Nc3ccc(F)c(Cl)c3)c2cc1OCCCN1CCOCC1 [Gefitinib, gefitinib]	≥ 200 ng/mL	> 200 ng/mL	59%				3 to 7 h		41 h		8 (32%) No. (%)	3 (11.5%) No. (%)		
		C=CC(=O)Nc1cc(Nc2nccc(-c3cn(C)c4ccccc34)n2)c(OC)cc1N(C)CCN(C)C [Osimertinib, osimertinib]	≥ 166 ng/mL	> 166 ng/mL	70%				6 h		44 h		4 (16%) No. (%)	6 (23%) No. (%)		
		CC(=O)Nc1cccc(-n2c(=O)n(C3CC3)c(=O)c3c(Nc4ccc(I)cc4F)n(C)c(=O)c(C)c32)c1 [Trametinib, trametinib]	≥ 10.6 ng/mL	> 10.6 ng/mL			80%	Deacetylation		not relevant	127 h		2 (8%) No. (%)	3 (11.5%) No. (%)		
		CNC(=O)c1cc(Oc2ccc(NC(=O)Nc3ccc(Cl)c(C(F)(F)F)c3)cc2)ccn1 [sorafenib]														lower than after one month of treatment
		CCN(CC)CCNC(=O)c1c(C)[nH]c(/C=C2\C(=O)Nc3ccc(F)cc32)c1C [sunitinib]										49%				

From article PMC7764991, “Chronic Plasma Exposure to Kinase Inhibitors in Patients with Oncogene-Addicted Non-Small Cell Lung Cancer” (Cancers, 2020)
